Where a SMILES comes first, the peptide text is derived from it. The star is where a group is joined. FITC = O=C1OC2(c3ccc(O)cc3Oc3cc(O)ccc32)c2ccc(NC(=S)*)cc21
Columns and labels:
CREBBP KIX = CREBBP KIX (Homo sapiens, UniProt Q92793); test: FP saturation binding, CREBBP KIX; conditions: domain titrated to 10 nM FITC-peptide, 50 mM sodium phosphate pH 7.4, 0.05% Tween, quadratic fit, technical triplets, read-out: KD [µM] + SE
MAP1LC3A ATG8 [1] = molecular target: T1, MAP1LC3A ATG8 (Homo sapiens, UniProt Q9H492); test: FP displacement assay, MAP1LC3A ATG8; assay type: binding; conditions: read-out: KD-values [µM] + SEM
Experimental: (§4) FP experiments were performed, as previously described (Kliche et al, [2021], [2023]), on an iD5 plate reader (Molecular devices) using black half-area non-binding 96-well plates (Corning). In order to calculate the FP signal in millipolarisation (mP), the FITC-labelled peptides were excited at 485 nm and the emitted light was measured at 535 nm in two different angles. For saturation experiments, a dilution series of the respective protein domains was generated (25 µL) and 10 nM fluorescein isothiocyanate (FITC)-labelled peptide (diluted in 50 mM sodium phosphate buffer pH 7.4, 0.05% Tween) were added in an end volume of 50 µL. […] For fitting the data, the buffer-corrected reduced values were plotted in GraphPad PRISM against the respective protein concentration and the KD-values were obtained by fitting against the quadratic equation (Gianni et al, [2005]).
(§5) The buffer-corrected reduced values were subsequently plotted against the logarithmic unlabelled peptide concentration to derive the IC50 values by using the sigmoidal dose-response (x is logarithmic) fit in GraphPad PRISM and calculate the KD values as described previously (Nikolovska-Coleska et al, [2004]).

NEDD4 WW2 = NEDD4 WW2 (Homo sapiens, UniProt P46934); test: FP saturation binding, NEDD4 WW2; conditions: GST-tagged construct, domain titrated to 10 nM FITC-peptide, 50 mM sodium phosphate pH 7.4, 0.05% Tween, quadratic fit, technical triplets, read-out: KD [µM] + SE
NEDD4 WW2, sequence (P46934 765-803 limits assumed): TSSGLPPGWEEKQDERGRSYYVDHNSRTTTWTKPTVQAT
Experimental: (§6) In order to calculate the FP signal in millipolarisation (mP), the FITC-labelled peptides were excited at 485 nm and the emitted light was measured at 535 nm in two different angles. For saturation experiments, a dilution series of the respective protein domains was generated (25 µL) and 10 nM fluorescein isothiocyanate (FITC)-labelled peptide (diluted in 50 mM sodium phosphate buffer pH 7.4, 0.05% Tween) were added in an end volume of 50 µL. A control experiment titrating GST was performed for the binding of the NEDD4 WW2 domain, since the GST-tagged construct was used for affinity measurements. For fitting the data, the buffer-corrected reduced values were plotted in GraphPad PRISM against the respective protein concentration and the KD-values were obtained by fitting against the quadratic equation (Gianni et al, [2005]).

Clathrin NTD = molecular target: T2, Clathrin NTD (Homo sapiens, UniProt Q00610); test: FP saturation binding, Clathrin NTD; conditions: domain titrated to 10 nM FITC-peptide, 50 mM sodium phosphate pH 7.4, 0.05% Tween, quadratic fit, technical triplets, read-out: KD [µM] + SE
T2 sequence (Q00610 1-364): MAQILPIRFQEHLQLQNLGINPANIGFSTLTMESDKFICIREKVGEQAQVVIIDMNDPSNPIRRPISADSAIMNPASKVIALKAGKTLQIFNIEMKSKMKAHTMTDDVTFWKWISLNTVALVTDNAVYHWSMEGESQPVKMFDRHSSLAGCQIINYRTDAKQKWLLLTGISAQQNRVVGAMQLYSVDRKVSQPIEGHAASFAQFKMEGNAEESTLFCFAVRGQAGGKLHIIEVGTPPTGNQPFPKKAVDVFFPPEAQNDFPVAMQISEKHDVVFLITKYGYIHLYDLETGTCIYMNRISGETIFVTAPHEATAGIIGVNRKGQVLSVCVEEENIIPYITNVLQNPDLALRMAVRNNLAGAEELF
Experimental: as §6

MAP1LC3A ATG8 [2] = molecular target: T1, MAP1LC3A ATG8; test: GenVar_HD2 ProP-PD phage selection, MAP1LC3A ATG8; conditions: bait MAP1LC3A ATG8; from NGS counts of overlapping wild-type/mutant library peptide pairs; positive = mutation enhances, negative = disrupts binding
Experimental: (§1) Phage display screens were performed according to previous reports (Benz et al, [2022]; Ali et al, [2020]) and for four consecutive selection rounds with five to six replicates per bait protein domain against the […] library.
(§2) On the first day, both bait (15 µg in 100 µL PBS) and control protein domains (GST and MBP; 10 µg in 100 µL PBS) were immobilised on a 96-well MaxiSorb plate (Nunc) overnight in the cold room while shaking. Additionally, a 10 mL culture of Omnimax E. coli bacteria supplemented with 10 µg/mL tetracycline was incubated overnight at 37 °C at 200 rpm.
(§3) First, protein solutions were removed from both control and bait protein domain plates and the wells were blocked with 0.5% BSA in PBS (200 µL/well) for 1 h in the cold room while shaking. After that, three Omnimax E. coli cultures were started supplemented with either 30 µg/mL kanamycin, 100 µg/mL carbenicillin and 10 µg/mL tetracycline and incubated at 37 °C and 200 rpm. The two first cultures served as a means to check for helper phage contamination (kanamycin) and phages with library phagemid contamination (carbenicillin) of the culture used for elution of the phages during selections. The tetracycline Omnimax E. coli culture was grown until OD at 600 nm reached 0.6–0.8. […]

GABARAPL1 ATG8 = GABARAPL1 ATG8 (Homo sapiens, UniProt Q9H0R8); test: FP saturation binding, GABARAPL1 ATG8; conditions: domain titrated to 10 nM FITC-peptide, 50 mM sodium phosphate pH 7.4, 0.05% Tween, quadratic fit, technical triplets, read-out: KD [µM] + SE
GABARAPL1 ATG8, sequence (Q9H0R8 2-115): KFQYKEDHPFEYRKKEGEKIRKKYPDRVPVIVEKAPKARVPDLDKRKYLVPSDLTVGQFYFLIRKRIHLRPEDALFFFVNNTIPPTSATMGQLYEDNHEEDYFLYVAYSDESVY

KPNA4 ARM minor = KPNA4 ARM minor (Homo sapiens, UniProt O00629); test: FP saturation binding, KPNA4 ARM (minor); conditions: domain titrated to 10 nM FITC-peptide, 50 mM sodium phosphate pH 7.4, 0.05% Tween, quadratic fit, technical triplets, read-out: KD [µM] + SE
KPNA4 ARM minor, sequence (O00629 68-487): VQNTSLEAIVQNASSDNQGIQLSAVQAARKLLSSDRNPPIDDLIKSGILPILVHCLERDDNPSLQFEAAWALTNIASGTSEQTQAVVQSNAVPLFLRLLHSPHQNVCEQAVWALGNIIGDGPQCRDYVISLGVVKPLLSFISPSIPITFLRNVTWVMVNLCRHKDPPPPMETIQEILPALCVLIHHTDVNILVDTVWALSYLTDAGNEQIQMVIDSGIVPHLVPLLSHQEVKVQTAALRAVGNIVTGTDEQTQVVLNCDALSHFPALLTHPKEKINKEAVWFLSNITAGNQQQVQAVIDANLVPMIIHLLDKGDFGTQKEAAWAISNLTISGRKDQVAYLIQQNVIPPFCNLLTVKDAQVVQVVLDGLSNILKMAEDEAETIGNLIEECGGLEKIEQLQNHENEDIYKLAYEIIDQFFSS

KPNA7 ARM (minor) = KPNA7 ARM (minor) (Homo sapiens, UniProt A9QM74); test: FP saturation binding, KPNA7 ARM (minor); conditions: domain titrated to 10 nM FITC-peptide, 50 mM sodium phosphate pH 7.4, 0.05% Tween, quadratic fit, technical triplets, read-out: KD [µM] + SE
KPNA7 ARM (minor), sequence (A9QM74 58-488 limits assumed): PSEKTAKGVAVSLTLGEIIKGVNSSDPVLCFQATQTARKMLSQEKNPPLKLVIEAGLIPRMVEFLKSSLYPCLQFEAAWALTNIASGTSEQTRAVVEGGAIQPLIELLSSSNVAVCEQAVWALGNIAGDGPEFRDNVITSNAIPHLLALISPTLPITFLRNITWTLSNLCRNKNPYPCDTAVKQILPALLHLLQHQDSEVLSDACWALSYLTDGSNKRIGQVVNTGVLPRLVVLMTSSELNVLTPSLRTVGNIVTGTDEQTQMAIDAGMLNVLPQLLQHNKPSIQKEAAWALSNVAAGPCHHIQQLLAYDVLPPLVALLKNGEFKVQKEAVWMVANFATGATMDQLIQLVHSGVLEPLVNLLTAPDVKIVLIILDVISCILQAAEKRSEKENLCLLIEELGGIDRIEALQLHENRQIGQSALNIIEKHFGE

USP7 MATH/TRAF [3] = molecular target: T3, USP7 MATH/TRAF (Homo sapiens, UniProt Q93009); test: FP saturation binding, USP7 MATH/TRAF; conditions: domain titrated to 10 nM FITC-peptide, 50 mM sodium phosphate pH 7.4, 0.05% Tween, quadratic fit, technical triplets, read-out: KD [µM] + SE
T3 sequence (Q93009 53-206): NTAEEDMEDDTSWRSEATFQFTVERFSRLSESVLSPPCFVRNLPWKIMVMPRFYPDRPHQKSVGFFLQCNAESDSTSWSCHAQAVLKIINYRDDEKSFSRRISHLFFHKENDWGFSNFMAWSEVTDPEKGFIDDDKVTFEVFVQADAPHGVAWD

GGA1 VHS [4] = molecular target: T4, GGA1 VHS (Homo sapiens, UniProt Q9UJY5); test: GenVar_HD2 ProP-PD phage selection, GGA1 VHS; conditions: bait GGA1 VHS; from NGS counts of overlapping wild-type/mutant library peptide pairs; positive = mutation enhances, negative = disrupts binding
T4 sequence (Q9UJY5 1-157): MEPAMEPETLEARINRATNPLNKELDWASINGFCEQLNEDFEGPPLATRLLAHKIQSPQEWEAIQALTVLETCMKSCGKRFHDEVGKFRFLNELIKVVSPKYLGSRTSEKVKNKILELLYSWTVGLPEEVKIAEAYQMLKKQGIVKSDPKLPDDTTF
Experimental: as §1, §2, §3

USP7 MATH/TRAF [5] = molecular target: T3, USP7 MATH/TRAF; test: GenVar_HD2 ProP-PD phage selection, USP7 MATH/TRAF; conditions: bait USP7 MATH/TRAF; from NGS counts of overlapping wild-type/mutant library peptide pairs; positive = mutation enhances, negative = disrupts binding
Experimental: as §1, §2, §3

USP7 MATH/TRAF [6] = molecular target: T3, USP7 MATH/TRAF; test: FP displacement assay, USP7 MATH/TRAF; assay type: binding; conditions: read-out: KD-values [µM] + SEM
Experimental: as §4, §5

ABL1 SH3 = ABL1 SH3 (Homo sapiens, UniProt P00519); test: FP saturation binding, ABL1 SH3; conditions: domain titrated to 10 nM FITC-peptide, 50 mM sodium phosphate pH 7.4, 0.05% Tween, quadratic fit, technical triplets, read-out: KD [µM] + SE
ABL1 SH3, sequence (P00519 60-121): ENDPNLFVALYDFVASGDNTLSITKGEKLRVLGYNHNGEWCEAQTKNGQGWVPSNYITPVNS

GGA1 VHS [7] = molecular target: T4, GGA1 VHS; test: FP saturation binding, GGA1 VHS; conditions: domain titrated to 10 nM FITC-peptide, 50 mM sodium phosphate pH 7.4, 0.05% Tween, quadratic fit, technical triplets, read-out: KD [µM] + SE

CREBBP KIX, sequence (Q92793 587-673): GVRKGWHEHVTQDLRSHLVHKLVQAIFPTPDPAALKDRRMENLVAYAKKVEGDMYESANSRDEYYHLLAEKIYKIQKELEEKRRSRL

Compound: CC(C)C[C@H](NC(=O)[C@H](CC(C)C)NC(=O)[C@H](CC(=O)O)NC(=O)[C@H](CO)NC(=O)[C@H](CC(C)C)NC(=O)[C@H](CCC(=O)O)NC(=O)[C@H](CCCCN)NC(=O)[C@H](CC(=O)O)NC(=S)Nc1ccc2c(c1)C(=O)OC21c2ccc(O)cc2Oc2cc(O)ccc21)C(=O)N[C@@H](CC(=O)O)C(=O)N[C@@H](Cc1ccccc1)C(=O)N[C@@H](CO)C(N)=O [FITC-TCF3] ({FITC}-DKELSDLLDFS-NH2)
- Kd (CREBBP KIX): 35 ± 4 µM

Compound: Ac-QTKWELLQQVDTSTRT-NH2 [KRT1_209-224 wild-type]
- Kd (MAP1LC3A ATG8 [1]): 55 ± 5 µM

Compound: C[C@H](NC(=O)[C@H](CO)NC(=O)[C@H](Cc1ccc(O)cc1)NC(=O)[C@@H]1CCCN1C(=O)[C@@H]1CCCN1C(=O)[C@@H]1CCCN1C(=O)[C@H](CO)NC(=O)[C@H](CC(=O)O)NC(=O)[C@@H](NC(=S)Nc1ccc2c(c1)C(=O)OC21c2ccc(O)cc2Oc2cc(O)ccc21)[C@@H](C)O)C(=O)NCC(=O)O [FITC-UL56(HHV-2)] ({FITC}-TDSPPPYSAG-OH)
- Kd (NEDD4 WW2): 4.1 ± 0.3 µM

Compound: CC[C@H](C)[C@H](NC(=O)[C@H](CC(C)C)NC(=O)[C@H](CC(=O)O)NC(=O)[C@@H](NC(=O)[C@H](CO)NC(=S)Nc1ccc2c(c1)C(=O)OC21c2ccc(O)cc2Oc2cc(O)ccc21)C(C)C)C(=O)N[C@H](C(=O)N[C@@H](Cc1ccccc1)C(=O)N[C@@H](CC(=O)O)C(=O)N[C@@H](CO)C(=O)N[C@H](C(N)=O)C(C)C)[C@@H](C)O [FITC-NSP3] ({FITC}-SVDLITFDSV-NH2)
- Kd (Clathrin NTD): 21 ± 3 µM

Compound: Ac-QTKWEPLQQVDTSTRT-NH2 [KRT1_209-224 L214P]
- Mutation enrichment score (MAP1LC3A ATG8 [2]): −6

Compound: CC(C)C[C@H](NC(=O)[C@H](Cc1c[nH]cn1)NC(=O)[C@@H](NC(=O)[C@H](Cc1c[nH]c2ccccc12)NC(=O)[C@H](CC(=O)O)NC(=O)[C@H](CC(=O)O)NC(=O)[C@H](CC(=O)O)NC(=S)Nc1ccc2c(c1)C(=O)OC21c2ccc(O)cc2Oc2cc(O)ccc21)[C@@H](C)O)C(=O)N[C@@H](CO)C(=O)N[C@@H](CO)C(=O)N[C@@H](CCCCN)C(N)=O [FITC-SQSTM1]
- Kd (GABARAPL1 ATG8): 3.7 ± 0.4 µM

Compound: CC[C@H](C)[C@H](NC(=O)[C@H](C)NC(=O)[C@H](CCCNC(=N)N)NC(=O)CNC(=O)[C@@H](NC(=O)[C@H](CCCNC(=N)N)NC(=O)CNC(=O)[C@H](CCC(=O)O)NC(=O)[C@H](CCSC)NC(=O)[C@H](CCSC)NC(=O)[C@H](CC(=O)O)NC(=O)[C@H](Cc1ccc(O)cc1)NC(=O)[C@@H](NC(=O)[C@H](CCCNC(=N)N)NC(=O)[C@H](CCCCN)NC(=O)[C@@H]1CCCN1C(=S)Nc1ccc2c(c1)C(=O)OC21c2ccc(O)cc2Oc2cc(O)ccc21)[C@@H](C)O)C(C)C)C(N)=O [FITC-NCOR2] ({FITC}-PKRTYDMMEGRVGRAI-NH2)
- Kd (KPNA4 ARM minor): 0.03 ± 0.002 µM
- Kd (KPNA7 ARM (minor)): 57 ± 9 µM

Compound: CC[C@H](C)[C@H](NC(=O)[C@H](CO)NC(=O)[C@H](CO)NC(=O)[C@H](CO)NC(=O)[C@@H](NC(=O)[C@H](CO)NC(=O)[C@@H]1CCCN1C(=O)[C@H](CCC(N)=O)NC(=O)[C@H](CO)NC(=O)[C@H](Cc1ccc(O)cc1)NC(=O)[C@H](CC(=O)O)NC(=S)Nc1ccc2c(c1)C(=O)OC21c2ccc(O)cc2Oc2cc(O)ccc21)[C@@H](C)O)C(=O)N[C@H](C(=O)N[C@@H](Cc1ccc(O)cc1)C(=O)O)[C@@H](C)CC [FITC-MDM2] ({FITC}-DYSQPSTSSSIIY-OH)
- Kd (USP7 MATH/TRAF [3]): 0.5 ± 0.03 µM

Compound: Ac-YQQELDHLLVDLDHQR-NH2 [MYH9_1419-1433 D1424H]
- Mutation enrichment score (GGA1 VHS [4]): −10

Compound: Ac-YISSSSTSTMPNSSKSS-NH2 [CHK2_38-53 Q51K]
- Mutation enrichment score (USP7 MATH/TRAF [5]): −6
- Kd (USP7 MATH/TRAF [6]): 4.7 ± 0.3 µM

Compound: CC(C)[C@H](NC(=O)[C@@H]1CCCN1C(=O)[C@@H]1CCCN1C(=O)[C@@H]1CCCN1C(=O)[C@@H]1CCCN1C(=O)[C@H](Cc1ccc(O)cc1)NC(=O)[C@H](C)NC(=O)[C@@H]1CCCN1C(=O)[C@@H]1CCCN1C(=O)[C@H](Cc1c[nH]cn1)NC(=S)Nc1ccc2c(c1)C(=O)OC21c2ccc(O)cc2Oc2cc(O)ccc21)C(=O)N1CCC[C@H]1C(=O)N[C@H](C(N)=O)[C@@H](C)O [FITC-3BP2] ({FITC}-HPPAYPPPPVPT-NH2)
- Kd (ABL1 SH3): 3.7 ± 0.4 µM

Compound: CC[C@H](C)[C@H](NC(=O)[C@H](CC(=O)O)NC(=O)[C@H](CC(C)C)NC(=O)[C@H](CC(C)C)NC(=O)[C@H](CC(=O)O)NC(=O)[C@H](CCC(=O)O)NC(=O)[C@H](CC(=O)O)NC(=O)[C@H](CCC(=O)O)NC(=O)[C@H](CC(=O)O)NC(=S)Nc1ccc2c(c1)C(=O)OC21c2ccc(O)cc2Oc2cc(O)ccc21)C(=O)N[C@@H](CCC(=O)O)C(=O)N[C@@H](CC(=O)O)C(N)=O [FITC-STK11_mut] ({FITC}-DEDEDLLDIED-NH2)
- Kd (GGA1 VHS [7]): 14.1 ± 0.7 µM
